Data on 80 compounds can be found in the METLIN SMRT retention time set (Domingo-Almenara et al. 2019).

This data set can be described thus: gradient 5% acetonitrile 3 min, to 50% in 2 min, to 85% in 15 min, held 3 min, 100 µL/min. To be noted: column: Zorbax Extend-C18 2.1 x 50 mm; eluents: water / acetonitrile, 0.1% formic acid. An outline of the steps: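 Using water and acetonitrile that each contained 0.1% formic acid, mixtures of ~100 pure standards were separated at 100 μL/min on a Zorbax Extend-C18 column (2.1 × 50 mm, 1.8 μm). The HPLC fed a quadrupole time-of-flight mass spectrometer working in positive and negative ionization mode, with dead and dwell volumes of 40 μL and 900 μL. Data were acquired over 3 months. Retention time was read from computationally picked adduct peaks after manual inspection of each.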
Turning to `CS(=O)(=O)N1CCN(C(=O)CCn2nnc3ccccc3c2=O)CC1`, the RP-LC retention time was 604 s.
With `COC1CCC12CCN(C(=O)c1ccc(C)s1)CC2` (stereo not given) the figure was 895 s; with `CCCCOc1ccc(-c2cc3c4nnc(CCC(=O)N5CCN(C(C)C)CC5)n4ccn3n2)cc1`, 692 s.
With `CCNC(=O)c1n[nH]c2c1CN(C(=O)c1cccc(Br)c1)CC2` the figure was 678 s.
With `Cc1ccc2[nH]c(=O)c(CCC(=O)O)cc2c1` the figure was 651 s.
`COc1ccc(CCc2nc3nccc(-c4ccncc4)n3n2)cc1OC` showed an RP-LC retention time of 645 s.
`Cc1ccc(-c2cc(C(=O)NCCCN3CCN(C)CC3)c(C)[nH]2)cc1C` came in with an RP-LC retention time of 610 s.
With `COc1ccc(C(=O)NCCS(=O)(=O)NCc2cccnc2)cc1` the figure was 547 s.
With `COc1ccccc1CNC(=O)C1CN(C(=O)c2cccs2)CC12CCCCC2` (stereo not given) the figure was 912 s.
With `CCOc1ccc(S(=O)(=O)N2CCC(C(=O)NCCCO)CC2)cc1C` the figure was 707 s; with `Cc1cc(C)c2oc(C(=O)NCC(c3ccccc3)N(C)C)cc(=O)c2c1` (stereo not given), 636 s.
In turn, `O=C(Nc1ccc(Cl)cc1)C1CC(=O)N(c2n[nH]c3cccc(F)c23)C1` (stereo not given) came in with an RP-LC retention time of 787 s.
With `CCc1noc(NC(C)=O)c1-c1ccc(OC)c(S(=O)(=O)Nc2ccc3c(c2)OCCO3)c1` the figure was 736 s; with `CCN1CCN(C(=O)C(C)n2c3ccccc3c3cnn(C)c(=O)c32)CC1` (stereo not given), 585 s; with `CCCc1nc(N2CCN(c3ccccn3)CC2)ncc1C(=O)O`, 606 s.
`O=C(Cc1ccccc1Br)NC1CCCN(c2cc(-c3ccccc3)[nH]n2)C1` (stereo not given) gave an RP-LC retention time of 811 s.
With `Cc1ccc(CNc2ccc3nnc(C4CCC4)n3n2)o1` the figure was 883 s.
`COc1ccc(CCc2nc3nccc(-c4cccs4)n3n2)cc1` registered an RP-LC retention time of 932 s.
For `CN(C)c1ccc(C(=O)N2CCCC2c2nc(-c3ccc(F)cc3)no2)cc1` (stereo not given), the RP-LC retention time was determined as 1020 s.
With `O=S(=O)(NCC1(c2cccs2)CCCC1)c1cccnc1` the figure was 827 s.
The compound `COc1ccc(C(=O)N2CCN(c3ccc(-c4nc(C)cs4)cn3)CC2)cc1` came in with an RP-LC retention time of 805 s.
With `O=C(Cn1cnc2nc(N3CCCC(C(=O)NC4CC4)C3)sc2c1=O)Nc1cccc(F)c1` (stereo not given) the figure was 655 s.
With `Cc1ccc(-c2noc(-c3cccc(S(=O)(=O)NC4CCCC4)c3)n2)cc1` the figure was 1360 s; with `O=S(=O)(Cc1ccccc1)N1CCc2nc(-c3ccc(Cl)cc3)ncc2C1`, 1150 s.
Take `Cn1cc(C2=C(c3cn(C4CCN(Cc5ccccn5)CC4)c4ccccc34)C(=O)NC2=O)c2ccccc21`: the RP-LC retention time is 753 s.
Compound `Cc1ccccc1Cn1cc(-c2ccncc2)cc1C(=O)NCC(C)C` returned an RP-LC retention time of 712 s.
Consider `CSc1ccc(C(C(C(=O)c2ccco2)N2CCOCC2)N2CCOCC2)cc1` (stereo not given), for which the RP-LC retention time is 698 s.
With `Cc1ccc(N2CCN(S(=O)(=O)c3cc4n(c3)CCCNC4=O)CC2)cc1` the figure was 743 s; with `Cn1c(=O)c2cc(C(=O)Nc3cccc(Cl)c3)cnc2n(-c2ccccc2)c1=O`, 980 s; with `CC1CN(C(=O)c2cc3cc([N+](=O)[O-])ccc3s2)CC(C)O1` (stereo not given), 780 s.
With `O=C(NCc1ccc(-c2noc(-c3cc(F)ccc3F)n2)s1)C1CC1` the figure was 932 s.
As to `COc1ccc(S(=O)(=O)C(CNC(=O)c2ccc3c(c2)OCO3)c2cccs2)cc1` (stereo not given), the RP-LC retention time is 787 s.
With `Cc1ccc(Nc2c(-c3ccccc3O)nc3ncccn23)cc1Cl` the figure was 738 s; with `Cc1cc(-c2nnc(-c3ccco3)o2)c(C)n1CC(=O)Nc1ccc(F)c(F)c1`, 909 s.
With `CC1(C)CC(=O)c2c(O)cc(OCC(=O)N3CCN(c4ccc(Cl)cc4)CC3)cc2O1` the figure was 1050 s; with `CCOc1ccc(S(=O)(=O)N2CC=C(c3cn(C(C)C)c4ncccc34)CC2)cc1`, 645 s; with `O=C(NCCC1CCN(S(=O)(=O)c2ccc(F)cc2)CC1)Nc1ccccc1`, 881 s.
With `O=C(C1CCc2nc(N3CCCC3)ncc2C1)N1CCN(Cc2ccc3c(c2)OCO3)CC1` (stereo not given) the figure was 566 s; with `Cc1ccc(Nc2c(-c3ccc(O)cc3)nc3ncccn23)cc1Cl`, 690 s; with `CC(C)N1CCN(C(=O)c2cc(-c3ccccc3)n[nH]2)CC1`, 589 s.
As for `OC[C@@H]1CN(Cc2ccc(OC(F)(F)F)cc2)C[C@H]1c1ccncc1`, the RP-LC retention time was 521 s.
`O=C(c1ccccn1)N1CCC(Oc2cc(N3CCCCC3)ncn2)C1` (stereo not given) had an RP-LC retention time of 686 s.
With `COc1ccccc1-c1nnc(-c2ccc(Cl)c(S(=O)(=O)N3CCCC3)c2)o1` the figure was 992 s.
With `CCc1nc2ccccc2n1CC(O)COc1cc(C)cc(C)c1` (stereo not given) the figure was 733 s; with `Cc1cccc(OCCc2noc(C3CNC3)n2)c1`, 644 s; with `CCn1cc(S(=O)(=O)N2CCc3ccccc3C2)c2cccnc21`, 950 s.
With `CCCC(=O)Nc1ccc(-n2cnc(C(=O)NC)c2)nc1` the figure was 598 s; with `Cc1cc2[nH]c(C(=O)Nc3cc(F)cc(F)c3)c(CN(C)C)c2s1`, 715 s.
As for `Cn1c(=O)oc2cc(-c3noc(-c4ccc(F)cc4)n3)ccc21`, the RP-LC retention time was 831 s.
With `Cc1nn(C)cc1S(=O)(=O)N(Cc1ccccc1)c1ccccc1` the figure was 861 s.
With `O=C(NC1CCCCCC1)C1CCCN(c2ccnc(-c3ccc(F)cc3)n2)C1` (stereo not given) the figure was 730 s; with `CCCOC(=O)c1cccc(Nc2nc(-c3cccnc3)nc3ccccc23)c1`, 889 s.
With `COc1ccc(Cl)cc1NC(=O)C1(c2ccccc2)CCOCC1` the figure was 1010 s; with `CCn1c(=O)c(C(=O)NC2CCN(Cc3ccccc3)CC2)nc2cccnc21`, 606 s; with `O=C(Cn1ccc2c(SCc3ccccc3)nccc21)N1CCN(c2ccccn2)CC1`, 577 s.
Consider `CC(C)CC(NC(=O)OCc1ccccc1)C(=O)NC(Cc1ccccc1)C(=O)CCl` (stereo not given), for which the RP-LC retention time was found to be 1010 s.
With `COc1ccc(NC(=O)C2CCCN(c3cc(=O)n(C)c(=O)n3C)C2)cc1OC` (stereo not given) the figure was 637 s; with `Cc1cc(NS(=O)(=O)c2cc3n(c2)CCCNC3=O)ccc1F`, 671 s.
Compound `CCOc1ccc(NC(=O)N2CCC3(CC2)NC(=O)c2ccccc2N3CC)cc1` displayed an RP-LC retention time of 785 s.
As for `CCCNC(=O)N1CC(c2nc(-c3ccc(F)cc3)no2)C2(CCOCC2)C1` (stereo not given), the RP-LC retention time is 793 s.
As for `CCc1ccc(NC(=O)Cn2c(=O)n(-c3cccc(C)c3)c(=O)c3c2cc(C)n3C)cc1`, the RP-LC retention time worked out at 645 s.
With `CN(C)CCNCc1ccc(-c2cc(Cl)ccc2Cl)o1` the figure was 578 s; with `CC(=O)c1cccc(NC(=O)c2cn(C)cc3c(=O)n(-c4ccccc4)nc2-3)c1`, 826 s.
With `O=C(N1CCCC(c2nnc(-c3cccs3)o2)C1)C1(c2ccccc2)CCOCC1` (stereo not given) the figure was 812 s; with `CC(C)c1ccc(NC(=O)Cn2nc(N3CCCC3)c3ccccc3c2=O)cc1`, 1090 s; with `N#Cc1ccccc1-c1cc(-c2ccccn2)cn(-c2ccccc2)c1=O`, 941 s.
With `Cc1cc(C)cc(NC(=O)c2cc(C(C)C)n3nccc3n2)c1` the figure was 1260 s; with `CC(=O)N1CCc2cc(N3CC(C(=O)NCc4ccc(Cl)cc4)CC3=O)ccc21` (stereo not given), 720 s; with `CC(C)Cn1c(=O)c(N2CCN(C(=O)C(C)C)CC2)nc2ccccc21`, 1020 s.
Take `Cn1nc(-c2nnc(-c3ccccc3)o2)c2c1CCN(S(=O)(=O)c1ccc(Cl)cc1)C2`: the RP-LC retention time stood at 992 s.
With `Cc1nnc(N2CCCC(C(=O)NCCc3c[nH]c4ccccc34)C2)c2nn(-c3ccccc3)c(C)c12` (stereo not given) the figure was 706 s; with `CCC(=O)Nc1nc2cc(NC(=O)C3CCN(S(=O)(=O)N4CCOCC4)CC3)ccc2s1`, 719 s.
With `COc1cc(-c2noc(Cn3cnc4c(cnn4-c4ccccc4)c3=O)n2)cc(OC)c1OC` the figure was 920 s; with `O=S(=O)(c1ccc(-c2csc(Nc3ccc(Cl)cc3)n2)cc1)N1CCOCC1`, 1080 s.
With `CCN1c2cc(F)ccc2C(=O)NC12CCN(C(=O)c1ccccc1)CC2` the figure was 742 s; with `Cc1ccc(-c2ccc(N3CCCC(C(=O)NCc4ccc(Br)cc4)C3)nn2)cc1` (stereo not given), 806 s; with `CS(=O)(=O)N1CCC(C(=O)Nc2ccc(Cl)cc2)Oc2ccccc21` (stereo not given), 924 s.
On to `CCSc1nnc(-c2nn(C)c3c2CN(S(=O)(=O)c2ccc(F)cc2)CC3)n1CC`, for which the RP-LC retention time is 943 s.
With `CCOC(=O)Cn1c(C2CC(=O)N(c3ccc(F)cc3)C2)nc2ccccc21` (stereo not given) the figure was 766 s; with `Cn1c(CCNC(=O)c2ccc(C(C)(C)C)cc2)nc2cccnc21`, 705 s.
